The assay deals with drug-resistant Mycobacterium tuberculosis. As to conditions: 5 micrograms per ml.

Take `CC(C)C[C@H](NC(=O)[C@H](Cc1ccccc1)NC(=O)CNC(=O)CNC(=O)[C@@H](N)Cc1ccc(O)cc1)C(=O)N[C@@H](CCCNC(=N)N)C(=O)N[C@@H](CCCNC(=N)N)C(=O)N[C@@H](CCC(N)=O)C(=O)N[C@@H](Cc1ccccc1)C(=O)N[C@@H](CCCCN)C(=O)N[C@H](C(=O)N[C@H](C(=O)N[C@H](C(=O)O)[C@@H](C)O)C(C)C)C(C)C` [Dynorphin B]: the “% inhibition” value turned out to be 0.0%.

Broadly, the % inhibition is the drop in the measured response relative to a control, in per cent. A higher % inhibition goes with strong suppression.
